Reference: US20050123478A1, “Agent for measurement of singlet oxygen” (Daiichi Pure Chemicals Co., Ltd, priority 2000, published 2005)

Key:
[1] = Light stability (photobleaching) of the endoperoxide under continuous excitation light; type: physicochemical; settings: 5.0 μM aqueous solution, 0.1 M phosphate buffer (pH 7.4), 0.1% DMSO, excitation light 491 nm, 37° C., fluorescence at 520 nm
Experimental: 5.0 μM aqueous solutions of DMAX-EP (endoperoxide of Compound 11 in the above scheme) and DPAX-1-EP (endoperoxide of Compound 13 described in International Patent Publication WO99/51586, Example 1) [0.1 M phosphate buffer (pH 7.4) containing 0.1% DMSO as a cosolvent]were each placed in a fluorescent cell and exposed to an excitation light of 491 nm at 37° C. with stirring, and fluorescence was measured at 520 nm by using a fluorometer while the solution was continuously exposed to the excitation light.

[2] = Measurement of singlet oxygen generated by naphthalene endoperoxide EP-1 (fluorescence)
Experimental: Singlet oxygen was generated continuously with time under a neutral condition at 37° C. in given amounts by using a naphthalene endoperoxide compound EP-1 (Saito, I, et al., J. Am. Chem. Soc., 107, pp. 6329-6334, 1985) as a singlet oxygen generation system. Fluorescence was measured in the presence of DMAX and DPAX-1 [100 mM phosphate buffer (pH 7.4), DMSO (0.1%)].

CC12OOC(C)(c3ccccc31)c1cc(-c3c4ccc(=O)cc-4oc4cc(O)ccc34)c(C(=O)O)cc12 (stereo not shown) [DMAX-EP]
Photobleaching, times slower than that of DPAX-1-EP [1]: 54 times

Cc1c2ccccc2c(C)c2cc(-c3c4ccc(=O)cc-4oc4cc(O)ccc34)c(C(=O)O)cc12 [DMAX]
Increase of fluorescence intensity with 0.5 mM EP-1 compared with 10 mM EP-1 in the presence of DPAX-1 ([2]; 100 mM phosphate buffer (pH 7.4), DMSO (0.1%), 37° C.): far larger
Fluorescence intensity on generation of singlet oxygen ([2]; EP-1 increased from 0.1 mM to 0.5 mM and to 1.0 mM, 100 mM phosphate buffer (pH 7.4), DMSO (0.1%), 37° C.): increase of fluorescence intensity dependent on the generated amount of singlet oxygen
Sensitivity for singlet oxygen compared with DPAX-1 ([2]; EP-1 singlet oxygen generation system, pH 7.4, 37° C.): much higher sensitivity
